Data: paper PMC6205638, “Exploring natural genetic variation in tomato sucrose synthases on the basis of increased kinetic properties” (PLoS ONE, 2018)

How the values were obtained:
SuSy3-haplotype#9 = tested on: T1, SuSy3-haplotype#9; assay: sucrose cleavage; UDP-glucose quantified by UDP-glucose dehydrogenase / NADH; Michaelis-Menten fit; type: biochemical, Solanum arcanum; conditions: 4 mM UDP, 20 mM HEPES pH 7.5, 25 °C; IMAC-purified
T1 construct: natural wild-species haplotype, full length (805 aa), in pDR195, expressed in Saccharomyces cerevisiae 22574d, IEX- and IMAC-purified; equals S. lycopersicum SuSy3 haplotype#1 with S53A/S106I/E727D/K741E (natural differences)
Description: sucrose cleavage; UDP-glucose quantified by UDP-glucose dehydrogenase / NADH; Michaelis-Menten fit on SuSy3-haplotype#9

SuSy3-haplotype#10 = tested on: T2, SuSy3-haplotype#10; assay: as above; type: biochemical, Solanum neorickii; conditions: 4 mM UDP, 20 mM HEPES pH 7.5, 25 °C; IEX-purified only (lower purity)
T2 construct: natural wild-species haplotype, full length (805 aa), in pDR195, expressed in Saccharomyces cerevisiae 22574d, IEX-purified only; equals S. lycopersicum SuSy3 haplotype#1 with S53A/S106I/Q349L/E727D/K741E (natural differences)
Description: sucrose cleavage; UDP-glucose quantified by UDP-glucose dehydrogenase / NADH; Michaelis-Menten fit on SuSy3-haplotype#10

Km (SuSy3-haplotype#9): 33 ± 9 mM | Km (SuSy3-haplotype#10): 58 ± 14 mM
SMILES: OC[C@H]1O[C@@](CO)(O[C@H]2O[C@H](CO)[C@@H](O)[C@H](O)[C@H]2O)[C@@H](O)[C@@H]1O [sucrose]
